Active and inactive are the calls of the source. The calls are words filed in the database; no cut-off is given here.
What was measured:
[1] = (§1) Inhibition of TGF-beta-induced human CTGF promoter activity transiently transfected in human HepG2 cells after 16 hrs by luciferase reporter assay; format: cell-based; conditions: HepG2, 16 h
[2] = (§2) Binding affinity to (AGCCAGACA)9-MLP element (unknown origin) transiently transfected in human HepG2 cells assessed as inhibition of TGF-beta-induced Smad-dependent transcriptional activity preincubated for 1 hr before TGF-beta stimulation measured after 16 hrs by luciferase reporter assay; format: cell-based
HepG2 [3] = test: as §1; format: cell-based
HepG2 [4] = test: Inhibition of TGF-beta-induced human CTGF promoter activity transiently transfected in human HepG2 cells assessed as CTGF expression preincubated at 680 nM for 1 hr before TGF-beta stimulation measured after 4 hrs by quantitative real-time PCR analysis; format: cell-based
HepG2 [5] = test: Inhibition of TGF-beta-induced human CTGF promoter activity transiently transfected in human HepG2 cells assessed as CTGF protein expression preincubated at 407 nM for 1 hr before TGF-beta stimulation measured after 8 hrs by Western blot analysis; format: cell-based
HepG2 [6] = test: Inhibition of TGF-beta-induced human CTGF promoter activity transiently transfected in human HepG2 cells assessed as reduction in type 1 collagen alpha1 expression preincubated at 680 nM for 1 hr before TGF-beta stimulation measured after 6 hrs by quantitative real-time PCR analysis; format: cell-based
HepG2 [7] = test: Inhibition of TGF-beta-induced human CTGF promoter activity transiently transfected in human HepG2 cells assessed as reduction in alpha-smooth muscle actin expression preincubated at 680 nM for 1 hr before TGF-beta stimulation measured after 6 hrs by quantitative real-time PCR analysis; format: cell-based
HepG2 [8] = test: Inhibition of TGF-beta-induced human CTGF promoter activity transiently transfected in human HepG2 cells assessed as reduction in mmp2 expression preincubated at 680 nM for 1 hr before TGF-beta stimulation measured after 6 hrs by quantitative real-time PCR analysis; format: cell-based
HepG2 [9] = test: Inhibition of TGF-beta-induced human CTGF promoter activity transiently transfected in human HepG2 cells assessed as reduction in tgf-beta expression preincubated at 680 nM for 1 hr before TGF-beta stimulation measured after 6 hrs by quantitative real-time PCR analysis; format: cell-based
HepG2 [10] = test: Inhibition of TGF-beta-induced human CTGF promoter activity transiently transfected in human HepG2 cells assessed as reduction in plasminogen activator inhibitor-1 expression preincubated at 680 nM for 1 hr before TGF-beta stimulation measured after 6 hrs by quantitative real-time PCR analysis; format: cell-based
MDA-MB-231 [11] = test: Antimigratory activity against human MDA-MB-231 cells assessed as reduction in formation of tubule-like structures at 136 nM after 16 hrs by matrigel assay relative to control; format: functional; design: scale not given: the % may be the effect or the level left
MDA-MB-231 [12] = test: Antimigratory activity against human MDA-MB-231 cells assessed as reduction in formation of tubule-like structures after 16 hrs by matrigel assay relative to control; format: functional, cell-based
MDA-MB-231 [13] = test: Antimigratory activity against human MDA-MB-231 cells assessed as reduction in formation of tubule-like structures at 275 nM after 16 hrs by matrigel assay relative to untreated control; format: functional; design: scale not given: the % may be the effect or the level left
HepG2 [14] = test: Inhibition of TGF-beta-induced human CTGF promoter activity transiently transfected in human HepG2 cells assessed as CTGF expression preincubated at 3.2 uM for 1 hr before TGF-beta stimulation measured after 4 hrs by quantitative real-time PCR analysis; format: cell-based
HepG2 [15] = test: Inhibition of TGF-beta-induced human CTGF promoter activity transiently transfected in human HepG2 cells assessed as CTGF protein expression preincubated at 3144 nM for 1 hr before TGF-beta stimulation measured after 8 hrs by Western blot analysis; format: cell-based
HepG2 [16] = test: as §2, with “activity measured as remaining activity” for “activity”, “preincubated at 2.2 uM” for “preincubated”; format: cell-based
HepG2 [17] = test: Inhibition of TGF-beta-induced human CTGF promoter activity transiently transfected in human HepG2 cells assessed as reduction in alpha-smooth muscle actin expression preincubated at 3.2 uM for 1 hr before TGF-beta stimulation measured after 6 hrs by quantitative real-time PCR analysis; format: cell-based
HepG2 [18] = test: Inhibition of TGF-beta-induced human CTGF promoter activity transiently transfected in human HepG2 cells assessed as reduction in type 1 collagen alpha1 expression preincubated at 3.2 uM for 1 hr before TGF-beta stimulation measured after 6 hrs by quantitative real-time PCR analysis; format: cell-based
HepG2 [19] = test: Inhibition of TGF-beta-induced human CTGF promoter activity transiently transfected in human HepG2 cells assessed as reduction in mmp2 expression preincubated at 3.2 uM for 1 hr before TGF-beta stimulation measured after 6 hrs by quantitative real-time PCR analysis; format: cell-based
HepG2 [20] = test: Inhibition of TGF-beta-induced human CTGF promoter activity transiently transfected in human HepG2 cells assessed as reduction in tgf-beta expression preincubated at 3.2 uM for 1 hr before TGF-beta stimulation measured after 6 hrs by quantitative real-time PCR analysis; format: cell-based
HepG2 [21] = test: Inhibition of TGF-beta-induced human CTGF promoter activity transiently transfected in human HepG2 cells assessed as reduction in plasminogen activator inhibitor-1 expression preincubated at 3.2 uM for 1 hr before TGF-beta stimulation measured after 6 hrs by quantitative real-time PCR analysis; format: cell-based
HepG2 [22] = test: Cytotoxicity against human HepG2 cells at 3.2 uM after 48 hrs by XTT assay; format: cell-based; conditions: hepg2, 48 h
MDA-MB-231 [23] = test: Cytotoxicity against human MDA-MB-231 cells at 3.2 uM after 48 hrs by XTT assay; format: cell-based; conditions: mda-mb-231, 48 h
MDA-MB-231 [24] = test: Antimigratory activity against human MDA-MB-231 cells assessed as reduction in formation of tubule-like structures at 2.4 uM after 16 hrs by matrigel assay relative to control; format: functional, cell-based
HepG2 [25] = test: Inhibition of TGF-beta-induced human CTGF promoter activity transiently transfected in human HepG2 cells assessed as CTGF expression preincubated at 700 nM for 1 hr before TGF-beta stimulation measured after 4 hrs by quantitative real-time PCR analysis; format: cell-based
HepG2 [26] = test: Inhibition of TGF-beta-induced human CTGF promoter activity transiently transfected in human HepG2 cells assessed as CTGF protein expression preincubated at 714 nM for 1 hr before TGF-beta stimulation measured after 8 hrs by Western blot analysis; format: cell-based
HepG2 [27] = test: Inhibition of TGF-beta-induced human CTGF promoter activity transiently transfected in human HepG2 cells assessed as reduction in alpha-smooth muscle actin expression preincubated at 700 nM for 1 hr before TGF-beta stimulation measured after 6 hrs by quantitative real-time PCR analysis; format: cell-based
HepG2 [28] = test: Inhibition of TGF-beta-induced human CTGF promoter activity transiently transfected in human HepG2 cells assessed as reduction in type 1 collagen alpha1 expression preincubated at 700 nM for 1 hr before TGF-beta stimulation measured after 6 hrs by quantitative real-time PCR analysis; format: cell-based
HepG2 [29] = test: Inhibition of TGF-beta-induced human CTGF promoter activity transiently transfected in human HepG2 cells assessed as reduction in mmp2 expression preincubated at 700 nM for 1 hr before TGF-beta stimulation measured after 6 hrs by quantitative real-time PCR analysis; format: cell-based
HepG2 [30] = test: Inhibition of TGF-beta-induced human CTGF promoter activity transiently transfected in human HepG2 cells assessed as reduction in tgf-beta expression preincubated at 700 nM for 1 hr before TGF-beta stimulation measured after 6 hrs by quantitative real-time PCR analysis; format: cell-based
HepG2 [31] = test: Inhibition of TGF-beta-induced human CTGF promoter activity transiently transfected in human HepG2 cells assessed as reduction in plasminogen activator inhibitor-1 expression preincubated at 700 nM for 1 hr before TGF-beta stimulation measured after 6 hrs by quantitative real-time PCR analysis; format: cell-based
MDA-MB-231 [32] = test: Antimigratory activity against human MDA-MB-231 cells assessed as reduction in formation of tubule-like structures at 568 nM after 16 hrs by matrigel assay relative to control; format: functional; design: scale not given: the % may be the effect or the level left
HepG2 [33] = test: Cytotoxicity against human HepG2 cells at 1.4 uM after 48 hrs by XTT assay; format: cell-based; conditions: hepg2, 48 h
MDA-MB-231 [34] = test: Cytotoxicity against human MDA-MB-231 cells at 1.4 uM after 48 hrs by XTT assay; format: cell-based; conditions: mda-mb-231, 48 h

C[C@H]1CCC/C=C/C(=O)c2c(O)cc(O)cc2CC(=O)O1 [DEHYDROCURVULARIN]
IC50 [1]: 4400 nM
IC50 [2]: 1700 nM

C/C1=C\CCC(C)(O)C(C)OC(=O)Cc2c(Cl)c(O)cc(O)c2C1=O (stereo unspecified)
IC50 [1]: 136 nM
inhibition (HepG2 [3]): Dose-dependent effect
inhibition (HepG2 [4]): Active
inhibition (HepG2 [5]): Active
inhibition (HepG2 [6]): Active
inhibition (HepG2 [7]): Active
IC50 [2]: 136 nM
inhibition (HepG2 [8]): Active
inhibition (HepG2 [9]): Active
inhibition (HepG2 [10]): Active
Activity (MDA-MB-231 [11]): >70%
Activity (MDA-MB-231 [12]): Dose-dependent effect

c1ccc(-c2n[nH]cc2-c2ccnc3ccccc23)nc1
Activity (MDA-MB-231 [13]): 30%

C/C1=C\CCC(C)C(C)OC(=O)Cc2cc(O)cc(O)c2C1=O (stereo unspecified)
IC50 [1]: 1800 nM
inhibition (HepG2 [3]): Dose-dependent effect
inhibition (HepG2 [14]): Active
inhibition (HepG2 [15]): inactive
IC50 [2]: > 2200 nM
inhibition (HepG2 [16]): Active
inhibition (HepG2 [17]): Active
inhibition (HepG2 [18]): Active
inhibition (HepG2 [19]): Active
inhibition (HepG2 [20]): Active
inhibition (HepG2 [21]): Active
Activity (HepG2 [22]): Non-toxic
Activity (MDA-MB-231 [23]): Non-toxic
Activity (MDA-MB-231 [24]): Active
Activity (MDA-MB-231 [12]): Dose-dependent effect

C/C1=C\CCC(C)C(C)OC(=O)Cc2c(Cl)c(O)cc(O)c2C1=O (stereo unspecified)
IC50 [1]: 336 nM
inhibition (HepG2 [3]): Dose-dependent effect
inhibition (HepG2 [25]): Active
inhibition (HepG2 [26]): inactive
IC50 [2]: 210 nM
inhibition (HepG2 [27]): Active
inhibition (HepG2 [28]): Active
inhibition (HepG2 [29]): Active
inhibition (HepG2 [30]): Active
inhibition (HepG2 [31]): Active
Activity (MDA-MB-231 [32]): >70%
Activity (HepG2 [33]): Non-toxic
Activity (MDA-MB-231 [34]): Non-toxic
Activity (MDA-MB-231 [12]): Dose-dependent effect

C[C@H]1CCCCCC(=O)c2c(O)cc(O)cc2CC(=O)O1
IC50 [1]: 86400 nM
IC50 [2]: 34200 nM
